Measured values from patent EP4644377A1, “LIPID COMPOUND FOR GENE DELIVERY AND LIPID NANOPARTICLE COMPRISING SAME” (NANJING CYBERNAX BIOMEDICAL TECHNOLOGY CO., LTD., priority 2022, dated 2024).

Experiments:
A549 cells = assay: In vitro delivery of luciferase mRNA by LNPs, A549 cells; format: cell-based, human; conditions: 100 ng luciferase mRNA per well, 24 h; ratio to naked mRNA control; result in words
Method: (§1) Human embryonic kidney cells (293T cells) and human non-small cell lung cancer cell lines (A549 cells) were obtained from the Chinese Type Culture Collection Center and cultured in DMEM high glucose culture medium containing 10% fetal bovine serum under the environment of 37°C and 5% CO2. The cells were inoculated in a 96-well cell culture plate in a density of 32,000 cells per well. LNPs coating mRNA expressing luciferase (Trilink, USA) were taken and added into the wells at a dose of 100 ng of mRNA per well. Meanwhile, control wells were set on each culture plate, and 100 ng of naked mRNA that was not coated by LNPs was added into each well. The cell culture plate was placed in a cell incubator for 24 h of co-culture under the conditions of 37°C and 5% CO2, and then the transfection effect of mRNA was detected through a One-LumiTM firefly luciferase reporter gene detection kit. The transfection results of LNPs in 293T cells are shown in FIG. 1 to FIG. 6 and FIG. 13 (upper), and the transfection results of LNPs in A549 cells are shown in FIG. 7 to FIG. 12 and FIG. 13 (lower). The transfection efficiency is expressed as a ratio of chemiluminescent intensity of LNP group to chemiluminescent intensity of control group (direct delivery of naked luciferase mRNA that is not coated by LNP).

293T cells [1] = assay: In vitro delivery of luciferase mRNA by LNPs, 293T cells; format: cell-based, Human; conditions: 100 ng luciferase mRNA per well, 24 h; ratio to naked mRNA control; result in words
Method: as §1

[2] = Determination of total nucleic acid and encapsulation efficiency (Quant-iT RiboGreen RNA kit); format: physicochemical
Method: The content of nucleic acids in an LNP sample was determined through a Quant-iT™ RiboGreen® RNA detection kit (Thermofisher). The detection of total RNA concentration: 5 µl of to-be-detected sample was placed into 2 ml of ep tube, 245 µl of 1xTE Buffer was added, and the above materials were evenly mixed to obtain a "diluted sample". 100 µl of the above "diluted sample" was taken, 100 µl of 10% TritonX-100 solution was added, the above materials were sufficiently and evenly mixed, and then the obtained mixture was demulsified for 15 min in metal bath under the conditions of 37°C and 300 rpm; and 80 µl of 1xTE Buffer was added into an ELISA plate, 20 µl of demulsified sample was taken and added into the ELISA plate to be evenly mixed, and then 100 µl of fluorescence dye (2000-fold dilution) solution was added.
Detection of free RNA concentration: 90 µl of 1xTE Buffer was added into the ELISA plate, 10 µl of the above "diluted sample" was taken, and 100 µl of fluorescence dye (2000-fold dilution) solution was added.
Meanwhile, a series of standard solutions having different concentrations were set in the ELISA plate as quantitative standard curves. The samples were loaded onto the ELISA plate to detect fluorescence signals (with an excitation wavelength of 480 nm and an emission detection wavelength of 520). A corresponding RNA concentration was obtained after the fluorescence signal in each well was converted via the standard curve.
Calculation method of encapsulation efficiency: EE(%) = (Concentration of total mRNA−concentration of free mRNA)/(Concentration of total mRNA)∗100% [formula]

C57Bl/6 mice = assay: Luciferase mRNA delivery in mice, IVIS chemiluminescence; format: in vivo; conditions: LNP formulation 2 (SM102: formulation 1); luciferase mRNA 0.25 mg/kg, tail vein, C57Bl/6 mice; whole body signal 6 h after LNP, 10 min after D-luciferin 150 mg/kg i.p.
Method: The animal experiments were reviewed and approved by the Ethics Committee of Zhejiang Medical College and the Ethics Committee of Zhejiang University of Technology. 6- to 8-week-old male C57Bl/6 mice were randomly grouped with 3 mice in each group. The mice in each group received a lipid nanoparticle coating mRNA expressing a luciferase via tail vein injection at a dose of 0.25 mg/kg mouse body weight (calculated by the mass of coated mRNA). […] The mRNA delivery effect of the lipid nanoparticle is quantitatively compared through a total chemiluminiscence quantity (Total Flux p/s) of a mouse whole body within unit time (shown in Table 5).
Table 13 and Table 14 show whole body chemiluminescent signals when LNPs (formulation 2) composed of the lipids in some examples deliver Flue mRNA in mice. The delivery dose of Flue mRNA was 0.25 mg/kg. 6 h after LNP injection, 150 mg/kg of D-luciferin was intraperitoneally injected into the mice, and then the whole body chemiluminescent signals were collected in the IVIS imaging system after 10 min. […]

[3] = test system: respiratory syncytial virus (RSV); assay: RSV mRNA vaccine in mice, RSV true virus neutralizing antibody titers; format: in vivo, BALB/c mice; conditions: 10 µg per mouse i.m., two immunizations three weeks apart, serum 14 days after the second; result in words versus antigen protein or SM102
Method: An RSV antigen mRNA sequence with a pre-fusion F protein conformation was prepared by a cap analogue co-transcription method, the sequence information is as shown in sequence 1 (SEQ ID NO: 1), and the amino acid sequence of the expressed antigen protein is as shown in sequence 2 (SEQ ID NO: 2). LNPs containing RSV-mRNA were prepared by respectively using lipid 174 and sm102 in a lipid ratio of formulation 1, wherein N/P was 6. The particle sizes and mRNA encapsulation efficiency data of two LNPs are as follows: lipid 174 has a particle size of 77.6 nm and an encapsulation efficiency of 96.2%; and sm102 has a particle size of 96.1 nm and an encapsulation efficiency of 97.9%. The LNP preparation encapsulating RSV mRNA and an F protein antigen with a pre-fusion conformation were intramuscularly administrated to BALB/c mice at a dose of 10 µg per mouse, with immunization once every three weeks for two immunizations in total. 14 days after secondary immunization, mouse serum was collected and submitted to CRO for detection of RSV true virus neutralizing antibody titers.

[4] = Particle size detection of LNP (Brookhaven NanoBrook Omni, DLS); format: physicochemical
Method: Step 1. Preparation of a lipid solution and a nucleic acid solution: unless otherwise specified, all aqueous solutions involved in examples were prepared from deionized water without nucleases. An ionizable lipid, a phospholipid (disaturated phosphatidylcholine (DSPC) or dioleoylphosphatidylethanolamine (DOPE)), cholesterol and a PEG lipid (DMG-PEG2000) were mixed in a molar ratio of 50/10/38.5/1.5 (containing DSPC, formulation 1) or 36.5/16/46.5/2.5 (containing DOPE, formulation 2) and dissolved into an ethanol solution. Meanwhile, a nucleic acid (a mass ratio of ionizable lipid/nucleic acid was 10/1) was dissolved into a citrate buffer solution of pH=3, so that a final volume ratio of the ethanol solution to the citrate solution was 1/3.
Step 2. Preparation of LNP by mixing the lipid solution with the nucleic acid solution: the lipid ethanol solution and the nucleic acid aqueous solution that were prepared in Step 1 were respectively put into a sterile syringe and placed in a Precision Nanosystem Ignite instrument, the extrusion flow speeds of the ethanol solution and the water phase solution were respectively set as 3 ml/min and 9 ml/min in instrument program settings. A microfluidic chip was inserted into the instrument and LNP preparation was initiated, and then a solution mixed by the chip was collected.
Step 2.1. Preparation of an LNP solution coating nucleic acid in a porous plate: a solution of an ionizable lipid, a phospholipid (DSPC or DOPE), cholesterol and a PEG lipid (DMG-PEG2000) in ethanol was added into each well of a 96-well deep plate, so that a molar ratio of four component lipids in each well was 50/10/38.5/1.5 (containing DSPC, formulation 1) or 36.5/16/46.5/2.5 (containing DOPE, formulation 2). Then, a citrate buffer solution (pH=3, the mass of nucleic acid added into each well was 1/10 that of the ionizable lipid in this well) that was three times as ethanol in volume and dissolved with a nucleic acid molecule was quickly added into the well plate through a multi-channel pipette or an automatic liquid dispensing system and rapidly mixed, so as to obtain the LNP solution coating nucleic acid.
Step 3. Purification of the LNP solution: the LNP solution collected in Step 2 or Step 2.1 was subjected to dialysis-concentration-filtration operations, so as to obtain a final LNP solution coating nucleic acid for subsequent testing.
The LNP solution coating nucleic acid obtained in Step 3 was diluted so that the final lipid concentration was between 0.01 mg/ml and 0.1 mg/ml. The diluted solution was added into a sample reservoir, and then subjected to particle size detection in a Brookhaven NanoBrook Omni instrument.

[5] = test system: enhanced green fluorescent protein (EGFP) gene; assay: LNP delivery of gene editing system (spCas9 mRNA + sgGFP), GFP knockout by flow cytometry; format: cell-based; conditions: HEK 293/eGFP-aavs1 cells, 200 ng total RNA per well, 48 h, average
Method: LNPs were prepared by using a composition ratio in formulation 2 and simultaneously coating spCas9 mRNA and sgRNA (sgGFP sequence: […]) with lipid 284, wherein N/P was 6, and a mass ratio of mRNA to sgRNA was 3/1. By DLS detection, the particle size of LNP was about 130 nm, PDI was 0.15, and the RNA encapsulation efficiency was greater than 95%. An HEK 293/eGFP-aavs1 stable cell line stably expressing a green fluorescence protein (GFP) was inoculated into a 96-well cell culture plate at a density of 40,000 cells per well. After incubation for 24 h, LNPs containing 200 ng of total RNA were added into each well, cells were collected after 48 h and the knockout efficiency cells of GFP were detected on a flow cytometer.

293T cells [6] = assay: In vitro eGFP plasmid DNA transfection; format: cell-based; conditions: 100 ng plasmid DNA per well, 48 h, fluorescence microscope, versus lipofectamine 3000
Method: 293T cells were inoculated into a 96-well cell culture plate at a density of 40,000 cells per well, LNPs prepared from lipid 284 and lipid 424 was used to coat plasmid DNA expressing eGFP, lipofectamine 3000 was used as a control group, 100 ng of plasmid DNA coated by the above vehicle was given to cells per well, the expression of eGFP was observed through a fluorescence microscope after co-culture for 48 h.

[7] = LNP with RSV-mRNA, lipid ratio of formulation 1, N/P 6
[8] = LNPs after coating mRNA (luciferase)
[9] = formulation 2, spCas9 mRNA and sgRNA 3/1, N/P 6, DLS

## CCCCCCCCCCCCCC(=O)N(CCCN(C)C)C(C(=O)NCCCCCCCC(=O)OC(CCCCCCCC)CCCCCCCC)C(C)(C)C (centres unmarked) [Lipid 174]
A549 cells
  transfection (delivery) efficiency of LNP in A549 cells: relatively high delivery efficiency
293T cells [1]
  transfection (delivery) efficiency of LNP in 293T cells: relatively high delivery efficiency
[2]; [7]
  encapsulation efficiency: 96.2%
C57Bl/6 mice
  Chemiluminescent signal (p/s): 3.15E+09 p/s
[3]
  RSV true virus neutralizing antibody titer: can efficiently stimulate the mouse to generate a neutralizing antibody targeting RSV
[4]; [7]
  Particle size: 77.6 nm
[4]; [8]
  PDI: 0.17
  Particle size: 202.44 ± 2.28 nm·days

## CCCCCCCCCCCCCC(=O)N(CCCN(C)C)C(C(=O)NCCCCCCOC(=O)C(CCCCCC)CCCCCCCC)C(C)(C)C (centres unmarked) [Lipid 284]
[5]
  cells with significant knockdown of GFP expression: 41.2%
293T cells [6]
  eGFP expression (delivery efficiency and positive cell ratio): delivery efficiencies and positive cell ratios exceed those in control group lipofectamine3000
[2]; formulation 2, spCas9 mRNA and sgRNA 3/1, N/P 6
  RNA encapsulation efficiency: greater than 95%
C57Bl/6 mice
  Chemiluminescent signal (p/s): 2.42E+10 p/s
[4]; [9]
  PDI: 0.15
  particle size of LNP: about 130 nm
